Measured values published in US10550111B2, “Pyrimidine urea compound containing isoxazolines and use thereof” (SHENYANG SINOCHEM AGROCHEMICALS R&D CO., LTD, priority 2014, dated 2020).

What was measured:
Type in all cases: in vivo
[1] = test system: Abutilon theophrasti Medic.; assay: Bioassay of herbicidal activity in greenhouse (further screening)
Description: (§1) Determination of herbicidal activity of compounds of the present invention against weeds was carried out by the following procedures:
(§2) Seeds of monocotyledonous and dicotyledonous weeds were sown in nutrition soil in paper pot (7 cm diameter), covered with soil in 1 cm and grown in the greenhouse under good growth conditions (temperature, atmospheric humidity, water supply). The compounds of the present invention as emulsifiable concentrate, were applied in pre-emergence and post-emergence treatment by track sprayer (Engineer Research Ltd., pressure 1.95 kg/cm^2, volume 500 L/hm^2, track speed 1.48 km/h). Pre-emergence treatment was conducted after seeding 24 hours and post-emergence treatment was done when the respective weeds reached predetermined leaf stage (grass weed 2- to 3-leaf stage, broad-leaf weed 2- to 4-leaf stage), the state of growth of the respective weeds were visually observed to determine the growth inhibition rate (%) in accordance with the following evaluation standard.
(§3) Growth inhibition rate (%): 0=no discernible action: 100=all weeds dead or not emerged.

[2] = test system: Echinochloa crus-galli (L.) Beauv.; assay: as above
Description: as §1, §2, §3

[3] = test system: Setaria glauca (L.) Beauv.; assay: as above
Description: as §1, §2, §3

Zinnia elegans Jacq. = assay: as above
Description: as §1, §2, §3

[4] = test system: broad-leaf weeds and grass weeds; assay: General screening of herbicidal activity in greenhouse; settings: 1000 g a.i./hm^2;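 also: 0 means no visible effect and 100 means all weeds dead or not emerged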
Description: as §1, §2, §3

COCCOC(=O)C1(C)CC(c2cc(-n3c(=O)cc(C(F)(F)F)n(C)c3=O)c(F)cc2Cl)=NO1 (stereo not shown) [Compound 16]
Growth inhibition rate, Post-emergence treatment, Abutilon theophrasti Medic. ([1]; dose 7.5 g a.i./hm^2): 75% | Growth inhibition rate, Post-emergence treatment, Abutilon theophrasti Medic. ([1]; dose 15 g a.i./hm^2): 98% | Growth inhibition rate, Post-emergence treatment, Abutilon theophrasti Medic. ([1]; dose 30.0 g a.i./hm^2): 100% | Growth inhibition rate, Post-emergence treatment, Abutilon theophrasti Medic. ([1]; dose 60.0 g a.i./hm^2): 100% | Growth inhibition rate, Post-emergence treatment, Abutilon theophrasti Medic. ([1]; dose 120.0 g a.i./hm^2): 100% | Growth inhibition rate, Post-emergence treatment, Echinochloa crus-galli (L.) Beauv. ([2]; dose 7.5 g a.i./hm^2): 50% | Growth inhibition rate, Post-emergence treatment, Echinochloa crus-galli (L.) Beauv. ([2]; dose 15 g a.i./hm^2): 80% | Growth inhibition rate, Post-emergence treatment, Echinochloa crus-galli (L.) Beauv. ([2]; dose 30.0 g a.i./hm^2): 100% | Growth inhibition rate, Post-emergence treatment, Echinochloa crus-galli (L.) Beauv. ([2]; dose 60.0 g a.i./hm^2): 100% | Growth inhibition rate, Post-emergence treatment, Echinochloa crus-galli (L.) Beauv. ([2]; dose 120.0 g a.i./hm^2): 100% | Growth inhibition rate, Post-emergence treatment, Setaria glauca (L.) Beauv. ([3]; dose 7.5 g a.i./hm^2): 75% | Growth inhibition rate, Post-emergence treatment, Setaria glauca (L.) Beauv. ([3]; dose 15 g a.i./hm^2): 98% | Growth inhibition rate, Post-emergence treatment, Setaria glauca (L.) Beauv. ([3]; dose 30.0 g a.i./hm^2): 100% | Growth inhibition rate, Post-emergence treatment, Setaria glauca (L.) Beauv. ([3]; dose 60.0 g a.i./hm^2): 100% | Growth inhibition rate, Post-emergence treatment, Setaria glauca (L.) Beauv. ([3]; dose 120.0 g a.i./hm^2): 100% | Growth inhibition rate, Post-emergence treatment, Zinnia elegans Jacq. (Zinnia elegans Jacq.; dose 7.5 g a.i./hm^2): 98% | Growth inhibition rate, Post-emergence treatment, Zinnia elegans Jacq. (Zinnia elegans Jacq.; dose 15 g a.i./hm^2): 100% | Growth inhibition rate, Post-emergence treatment, Zinnia elegans Jacq. (Zinnia elegans Jacq.; dose 30.0 g a.i./hm^2): 100% | Growth inhibition rate, Post-emergence treatment, Zinnia elegans Jacq. (Zinnia elegans Jacq.; dose 60.0 g a.i./hm^2): 100% | Growth inhibition rate, Post-emergence treatment, Zinnia elegans Jacq. (Zinnia elegans Jacq.; dose 120.0 g a.i./hm^2): 100% | pre-emergence and post-emergence herbicidal activity against broad-leaf weeds and grass weeds [4]: good

CCOCCOC(=O)C1(C)CC(c2cc(-n3c(=O)cc(C(F)(F)F)n(C)c3=O)c(F)cc2Cl)=NO1 (stereo not shown) [Compound 15]
Growth inhibition rate, Post-emergence treatment, Abutilon theophrasti Medic. ([1]; dose 7.5 g a.i./hm^2): 65% | Growth inhibition rate, Post-emergence treatment, Abutilon theophrasti Medic. ([1]; dose 15 g a.i./hm^2): 100% | Growth inhibition rate, Post-emergence treatment, Abutilon theophrasti Medic. ([1]; dose 30.0 g a.i./hm^2): 100% | Growth inhibition rate, Post-emergence treatment, Abutilon theophrasti Medic. ([1]; dose 60.0 g a.i./hm^2): 100% | Growth inhibition rate, Post-emergence treatment, Abutilon theophrasti Medic. ([1]; dose 120.0 g a.i./hm^2): 100% | Growth inhibition rate, Post-emergence treatment, Echinochloa crus-galli (L.) Beauv. ([2]; dose 7.5 g a.i./hm^2): 70% | Growth inhibition rate, Post-emergence treatment, Echinochloa crus-galli (L.) Beauv. ([2]; dose 15 g a.i./hm^2): 85% | Growth inhibition rate, Post-emergence treatment, Echinochloa crus-galli (L.) Beauv. ([2]; dose 30.0 g a.i./hm^2): 100% | Growth inhibition rate, Post-emergence treatment, Echinochloa crus-galli (L.) Beauv. ([2]; dose 60.0 g a.i./hm^2): 100% | Growth inhibition rate, Post-emergence treatment, Echinochloa crus-galli (L.) Beauv. ([2]; dose 120.0 g a.i./hm^2): 100% | Growth inhibition rate, Post-emergence treatment, Setaria glauca (L.) Beauv. ([3]; dose 7.5 g a.i./hm^2): 75% | Growth inhibition rate, Post-emergence treatment, Setaria glauca (L.) Beauv. ([3]; dose 15 g a.i./hm^2): 98% | Growth inhibition rate, Post-emergence treatment, Setaria glauca (L.) Beauv. ([3]; dose 30.0 g a.i./hm^2): 100% | Growth inhibition rate, Post-emergence treatment, Setaria glauca (L.) Beauv. ([3]; dose 60.0 g a.i./hm^2): 100% | Growth inhibition rate, Post-emergence treatment, Setaria glauca (L.) Beauv. ([3]; dose 120.0 g a.i./hm^2): 100% | Growth inhibition rate, Post-emergence treatment, Zinnia elegans Jacq. (Zinnia elegans Jacq.; dose 7.5 g a.i./hm^2): 100% | Growth inhibition rate, Post-emergence treatment, Zinnia elegans Jacq. (Zinnia elegans Jacq.; dose 15 g a.i./hm^2): 100% | Growth inhibition rate, Post-emergence treatment, Zinnia elegans Jacq. (Zinnia elegans Jacq.; dose 30.0 g a.i./hm^2): 100% | Growth inhibition rate, Post-emergence treatment, Zinnia elegans Jacq. (Zinnia elegans Jacq.; dose 60.0 g a.i./hm^2): 100% | Growth inhibition rate, Post-emergence treatment, Zinnia elegans Jacq. (Zinnia elegans Jacq.; dose 120.0 g a.i./hm^2): 100% | pre-emergence and post-emergence herbicidal activity against broad-leaf weeds and grass weeds [4]: good

Cn1c(C(F)(F)F)cc(=O)n(-c2cc(C3=NOC(C)(COC(=O)CCl)C3)c(Cl)cc2F)c1=O (stereo not shown) [Compound 50]
Growth inhibition rate, Post-emergence treatment, Abutilon theophrasti Medic. ([1]; dose 37.5 g a.i./hm^2): 100% | Growth inhibition rate, Post-emergence treatment, Abutilon theophrasti Medic. ([1]; dose 150 g a.i./hm^2): 100% | Growth inhibition rate, Post-emergence treatment, Abutilon theophrasti Medic. ([1]; dose 600 g a.i./hm^2): 100% | Growth inhibition rate, Pre-emergence treatment, Abutilon theophrasti Medic. ([1]; dose 37.5 g a.i./hm^2): 0% | Growth inhibition rate, Pre-emergence treatment, Abutilon theophrasti Medic. ([1]; dose 150 g a.i./hm^2): 35% | Growth inhibition rate, Pre-emergence treatment, Abutilon theophrasti Medic. ([1]; dose 600 g a.i./hm^2): 100% | Growth inhibition rate, Post-emergence treatment, Echinochloa crus-galli (L.) Beauv. ([2]; dose 37.5 g a.i./hm^2): 10% | Growth inhibition rate, Post-emergence treatment, Echinochloa crus-galli (L.) Beauv. ([2]; dose 150 g a.i./hm^2): 30% | Growth inhibition rate, Post-emergence treatment, Echinochloa crus-galli (L.) Beauv. ([2]; dose 600 g a.i./hm^2): 80% | Growth inhibition rate, Pre-emergence treatment, Echinochloa crus-galli (L.) Beauv. ([2]; dose 37.5 g a.i./hm^2): 0% | Growth inhibition rate, Pre-emergence treatment, Echinochloa crus-galli (L.) Beauv. ([2]; dose 150 g a.i./hm^2): 10% | Growth inhibition rate, Pre-emergence treatment, Echinochloa crus-galli (L.) Beauv. ([2]; dose 600 g a.i./hm^2): 80% | Growth inhibition rate, Post-emergence treatment, Setaria glauca (L.) Beauv. ([3]; dose 37.5 g a.i./hm^2): 15% | Growth inhibition rate, Post-emergence treatment, Setaria glauca (L.) Beauv. ([3]; dose 150 g a.i./hm^2): 65% | Growth inhibition rate, Post-emergence treatment, Setaria glauca (L.) Beauv. ([3]; dose 600 g a.i./hm^2): 98% | Growth inhibition rate, Pre-emergence treatment, Setaria glauca (L.) Beauv. ([3]; dose 37.5 g a.i./hm^2): 0% | Growth inhibition rate, Pre-emergence treatment, Setaria glauca (L.) Beauv. ([3]; dose 150 g a.i./hm^2): 30% | Growth inhibition rate, Pre-emergence treatment, Setaria glauca (L.) Beauv. ([3]; dose 600 g a.i./hm^2): 90% | Growth inhibition rate, Post-emergence treatment, Zinnia elegans Jacq. (Zinnia elegans Jacq.; dose 37.5 g a.i./hm^2): 98% | Growth inhibition rate, Post-emergence treatment, Zinnia elegans Jacq. (Zinnia elegans Jacq.; dose 150 g a.i./hm^2): 100% | Growth inhibition rate, Post-emergence treatment, Zinnia elegans Jacq. (Zinnia elegans Jacq.; dose 600 g a.i./hm^2): 100% | Growth inhibition rate, Pre-emergence treatment, Zinnia elegans Jacq. (Zinnia elegans Jacq.; dose 37.5 g a.i./hm^2): 0% | Growth inhibition rate, Pre-emergence treatment, Zinnia elegans Jacq. (Zinnia elegans Jacq.; dose 150 g a.i./hm^2): 30% | Growth inhibition rate, Pre-emergence treatment, Zinnia elegans Jacq. (Zinnia elegans Jacq.; dose 600 g a.i./hm^2): 90% | pre-emergence and post-emergence herbicidal activity against broad-leaf weeds and grass weeds [4]: good
